# From PubChem BioAssay AID2060900 (Molecular Pharmacology Branch, DTP, NCI, 2025)
# Test system: 521955-158-R2-J5-PDC complex spheroids, viability
# Test: Anticancer human tumor 521955-158-R2-J5-PDC patient-derived pancreatic carcinoma cell line growth inhibition [RAS]
# Conditions: for IC50: curve of first compound; for viability, T/C: stronger effect = lower value
# Outline: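 Tumour cells grown as complex spheroids with HUVEC endothelial cells and mesenchymal stem cells, treated with RAS pathway inhibitor combinations. Each agent spans half-log steps from near clinical Cmax, or 10 microM where Cmax is unknown.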
# 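Also: compound exposure lasted seven days before the viability read.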
# 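For viability, T/C in this document: spheroids also contain HUVEC endothelial cells and mesenchymal stem cells as stroma.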
smiles,measurement,setting,value
C=CC(=O)N1CCN(c2nc(OCC3CCCN3C)nc3c(F)c(-c4nc(N)cc(C)c4C(F)(F)F)c(Cl)cc23)C(C)C1 (stereo unspecified) + CCn1c(-c2cccnc2C(C)OC)c2c3cc(ccc31)N1CCOC(CC(NC(=O)C(C(C)C)N(C)C(=O)C3(F)CCN(C(=O)C#CC(C)(C)N(C)C)CC3)C(=O)N3CCCC(N3)C(=O)OCC(C)(C)C2)C1,IC50,second compound 0.000949 µM,> 1000 nM
same,IC50,second compound 0.003 µM,> 1000 nM
same,IC50,second compound 0.00949 µM,> 1000 nM
same,IC50,second compound 0.03 µM,> 1000 nM
same,IC50,second compound 0.0949 µM,> 1000 nM
same,IC50,second compound 0.3 µM,> 1000 nM
same,"viability, T/C","second compound 0.000949 µM, first compound 0.00316 µM",100%
same,"viability, T/C","second compound 0.000949 µM, first compound 0.01 µM",104%
same,"viability, T/C","second compound 0.000949 µM, first compound 0.0316 µM",104%
same,"viability, T/C","second compound 0.000949 µM, first compound 0.1 µM",103%
same,"viability, T/C","second compound 0.000949 µM, first compound 0.316 µM",99.1%
same,"viability, T/C","second compound 0.000949 µM, first compound 1 µM",92.7%
same,"viability, T/C","second compound 0.003 µM, first compound 0.00316 µM",93.2%
same,"viability, T/C","second compound 0.003 µM, first compound 0.01 µM",88.3%
same,"viability, T/C","second compound 0.003 µM, first compound 0.0316 µM",107%
same,"viability, T/C","second compound 0.003 µM, first compound 0.1 µM",113%
same,"viability, T/C","second compound 0.003 µM, first compound 0.316 µM",86.5%
same,"viability, T/C","second compound 0.003 µM, first compound 1 µM",94.7%
same,"viability, T/C","second compound 0.00949 µM, first compound 0.00316 µM",97.7%
same,"viability, T/C","second compound 0.00949 µM, first compound 0.01 µM",111%
same,"viability, T/C","second compound 0.00949 µM, first compound 0.0316 µM",109%
same,"viability, T/C","second compound 0.00949 µM, first compound 0.1 µM",115%
same,"viability, T/C","second compound 0.00949 µM, first compound 0.316 µM",97.9%
same,"viability, T/C","second compound 0.00949 µM, first compound 1 µM",97.7%
same,"viability, T/C","second compound 0.03 µM, first compound 0.00316 µM",99.3%
same,"viability, T/C","second compound 0.03 µM, first compound 0.01 µM",92.8%
same,"viability, T/C","second compound 0.03 µM, first compound 0.0316 µM",97.7%
same,"viability, T/C","second compound 0.03 µM, first compound 0.1 µM",95.8%
same,"viability, T/C","second compound 0.03 µM, first compound 0.316 µM",95.2%
same,"viability, T/C","second compound 0.03 µM, first compound 1 µM",91.9%
same,"viability, T/C","second compound 0.0949 µM, first compound 0.00316 µM",88.5%
same,"viability, T/C","second compound 0.0949 µM, first compound 0.01 µM",86.8%
same,"viability, T/C","second compound 0.0949 µM, first compound 0.0316 µM",104%
same,"viability, T/C","second compound 0.0949 µM, first compound 0.1 µM",96.4%
same,"viability, T/C","second compound 0.0949 µM, first compound 0.316 µM",98.1%
same,"viability, T/C","second compound 0.0949 µM, first compound 1 µM",74.4%
same,"viability, T/C","second compound 0.3 µM, first compound 0.00316 µM",80%
same,"viability, T/C","second compound 0.3 µM, first compound 0.01 µM",78.2%
same,"viability, T/C","second compound 0.3 µM, first compound 0.0316 µM",90.1%
same,"viability, T/C","second compound 0.3 µM, first compound 0.1 µM",69.1%
same,"viability, T/C","second compound 0.3 µM, first compound 0.316 µM",89.4%
same,"viability, T/C","second compound 0.3 µM, first compound 1 µM",79.7%
CC1(O)CCCC1n1c(=O)c(C(F)F)cc2cnc(NC3CCN(S(C)(=O)=O)CC3)nc21 (stereo unspecified) + C#Cc1c(F)ccc2cc(O)cc(-c3ncc4c(N5CC6CCC(C5)N6)nc(OCC56CCCN5CC(F)C6)nc4c3F)c12,IC50,second compound 0.0316 µM,> 10000 nM
same,IC50,second compound 0.1 µM,3760 nM
same,IC50,second compound 0.316 µM,< 31.6 nM
same,IC50,second compound 1 µM,31.6 nM
same,IC50,second compound 3.16 µM,< 31.6 nM
same,IC50,second compound 10 µM,< 31.6 nM
same,"viability, T/C","second compound 0.0316 µM, first compound 0.0316 µM",53.9%
same,"viability, T/C","second compound 0.0316 µM, first compound 0.1 µM",48%
same,"viability, T/C","second compound 0.0316 µM, first compound 0.316 µM",60.1%
same,"viability, T/C","second compound 0.0316 µM, first compound 1 µM",68.4%
same,"viability, T/C","second compound 0.0316 µM, first compound 3.16 µM",75.1%
same,"viability, T/C","second compound 0.0316 µM, first compound 10 µM",24.9%
same,"viability, T/C","second compound 0.1 µM, first compound 0.0316 µM",48.8%
same,"viability, T/C","second compound 0.1 µM, first compound 0.1 µM",56.6%
same,"viability, T/C","second compound 0.1 µM, first compound 0.316 µM",43.4%
same,"viability, T/C","second compound 0.1 µM, first compound 1 µM",53.9%
same,"viability, T/C","second compound 0.1 µM, first compound 3.16 µM",73%
same,"viability, T/C","second compound 0.1 µM, first compound 10 µM",21.3%
same,"viability, T/C","second compound 0.316 µM, first compound 0.0316 µM",44.5%
same,"viability, T/C","second compound 0.316 µM, first compound 0.1 µM",37.4%
same,"viability, T/C","second compound 0.316 µM, first compound 0.316 µM",41.1%
same,"viability, T/C","second compound 0.316 µM, first compound 1 µM",51.3%
same,"viability, T/C","second compound 0.316 µM, first compound 3.16 µM",63.1%
same,"viability, T/C","second compound 0.316 µM, first compound 10 µM",19.5%
same,"viability, T/C","second compound 1 µM, first compound 0.0316 µM",52.3%
same,"viability, T/C","second compound 1 µM, first compound 0.1 µM",41.4%
same,"viability, T/C","second compound 1 µM, first compound 0.316 µM",39.8%
same,"viability, T/C","second compound 1 µM, first compound 1 µM",47.8%
same,"viability, T/C","second compound 1 µM, first compound 3.16 µM",59.5%
same,"viability, T/C","second compound 1 µM, first compound 10 µM",21.6%
same,"viability, T/C","second compound 3.16 µM, first compound 0.0316 µM",45.9%
same,"viability, T/C","second compound 3.16 µM, first compound 0.1 µM",31.5%
same,"viability, T/C","second compound 3.16 µM, first compound 0.316 µM",38.8%
same,"viability, T/C","second compound 3.16 µM, first compound 1 µM",40.6%
same,"viability, T/C","second compound 3.16 µM, first compound 3.16 µM",56.6%
same,"viability, T/C","second compound 3.16 µM, first compound 10 µM",24.4%
same,"viability, T/C","second compound 10 µM, first compound 0.0316 µM",42.4%
same,"viability, T/C","second compound 10 µM, first compound 0.1 µM",30.6%
same,"viability, T/C","second compound 10 µM, first compound 0.316 µM",40.4%
same,"viability, T/C","second compound 10 µM, first compound 1 µM",46.2%
same,"viability, T/C","second compound 10 µM, first compound 3.16 µM",62.8%
same,"viability, T/C","second compound 10 µM, first compound 10 µM",12.3%
CC1(C)CCC(Nc2ncc(C(F)(F)F)c(-c3c[nH]c4c(P(C)(C)=O)c(C#N)ccc34)n2)CN1 (stereo unspecified) + CCn1c(-c2cccnc2C(C)OC)c2c3cc(ccc31)N1CCOC(CC(NC(=O)C(C(C)C)N(C)C(=O)C3(F)CCN(C(=O)C#CC(C)(C)N(C)C)CC3)C(=O)N3CCCC(N3)C(=O)OCC(C)(C)C2)C1,IC50,second compound 0.000949 µM,7.81 nM
same,IC50,second compound 0.003 µM,8.8 nM
same,IC50,second compound 0.00949 µM,8.56 nM
same,IC50,second compound 0.03 µM,6.8 nM
same,IC50,second compound 0.0949 µM,7.28 nM
same,IC50,second compound 0.3 µM,5.8 nM
same,"viability, T/C","second compound 0.000949 µM, first compound 0.000949 µM",88.5%
same,"viability, T/C","second compound 0.000949 µM, first compound 0.003 µM",60.9%
same,"viability, T/C","second compound 0.000949 µM, first compound 0.00949 µM",50.1%
same,"viability, T/C","second compound 0.000949 µM, first compound 0.03 µM",39.2%
same,"viability, T/C","second compound 0.000949 µM, first compound 0.0949 µM",40.7%
same,"viability, T/C","second compound 0.000949 µM, first compound 0.3 µM",43%
same,"viability, T/C","second compound 0.003 µM, first compound 0.000949 µM",106%
same,"viability, T/C","second compound 0.003 µM, first compound 0.003 µM",65.2%
same,"viability, T/C","second compound 0.003 µM, first compound 0.00949 µM",49.9%
same,"viability, T/C","second compound 0.003 µM, first compound 0.03 µM",44%
same,"viability, T/C","second compound 0.003 µM, first compound 0.0949 µM",39.7%
same,"viability, T/C","second compound 0.003 µM, first compound 0.3 µM",45.7%
same,"viability, T/C","second compound 0.00949 µM, first compound 0.000949 µM",83.2%
same,"viability, T/C","second compound 0.00949 µM, first compound 0.003 µM",62.5%
same,"viability, T/C","second compound 0.00949 µM, first compound 0.00949 µM",52%
same,"viability, T/C","second compound 0.00949 µM, first compound 0.03 µM",36.2%
same,"viability, T/C","second compound 0.00949 µM, first compound 0.0949 µM",42.5%
same,"viability, T/C","second compound 0.00949 µM, first compound 0.3 µM",54.1%
same,"viability, T/C","second compound 0.03 µM, first compound 0.000949 µM",90.5%
same,"viability, T/C","second compound 0.03 µM, first compound 0.003 µM",68.7%
same,"viability, T/C","second compound 0.03 µM, first compound 0.00949 µM",40.9%
same,"viability, T/C","second compound 0.03 µM, first compound 0.03 µM",38.4%
same,"viability, T/C","second compound 0.03 µM, first compound 0.0949 µM",41.8%
same,"viability, T/C","second compound 0.03 µM, first compound 0.3 µM",48.4%
same,"viability, T/C","second compound 0.0949 µM, first compound 0.000949 µM",80.8%
same,"viability, T/C","second compound 0.0949 µM, first compound 0.003 µM",66.2%
same,"viability, T/C","second compound 0.0949 µM, first compound 0.00949 µM",45.4%
same,"viability, T/C","second compound 0.0949 µM, first compound 0.03 µM",38.9%
same,"viability, T/C","second compound 0.0949 µM, first compound 0.0949 µM",40%
same,"viability, T/C","second compound 0.0949 µM, first compound 0.3 µM",39%
same,"viability, T/C","second compound 0.3 µM, first compound 0.000949 µM",68.2%
same,"viability, T/C","second compound 0.3 µM, first compound 0.003 µM",65.1%
same,"viability, T/C","second compound 0.3 µM, first compound 0.00949 µM",38.7%
same,"viability, T/C","second compound 0.3 µM, first compound 0.03 µM",34.2%
same,"viability, T/C","second compound 0.3 µM, first compound 0.0949 µM",38.2%
same,"viability, T/C","second compound 0.3 µM, first compound 0.3 µM",40.1%
